From article PMC8280112, “Substrate reduction therapy for Krabbe disease and metachromatic leukodystrophy using a novel ceramide galactosyltransferase inhibitor” (Scientific Reports, 2021)

Tests used:
[1] = test system: sulfatide and lysosulfatide levels; assay: ARSA knockout (MLD) mouse brain sulfatide and lysosulfatide analysis; assay type: in vivo; details: MLD (ARSA knockout) mice, IP three times per week
Protocol: ARSA mice were obtained from Volkmar Gieselmann, University of Bonn. ARSA −/− mice were generated from heterozygous pairing and confirmed by PCR genotyping. […] Animals were euthanized by exsanguination under deep anesthesia and brain and sciatic nerve removed, rinsed in cold saline, dried, and snap frozen for lipid quantification.
Previously diluted brain homogenate was serially diluted (10 µL into 90 µL and then 20 µL into 80 µL) in ACN/H2O (v/v 1:1) before being added to 300 µL ACN with IS (N-C18:0-CD3-sulfatide, Matreya). The mixture was vortexed for 10 min, centrifuged at 5800 rpm for 10 min, and then 3 µL of supernatant was injected for LC–MS/MS analysis. Sulfatides were separated on an ACE 5 C18 (2.1 × 50 mm, 5 µm) column (0.6 mL/min flow rate) at 60 °C using mobile phase A (H2O-5 mM NH4OAc) and mobile phase B (ACN). Non-hydroxy-sulfatide and 2-hydroxy-sulfatide were detected using MRM on a UPLC-MS/MS-22 (Triple Quad 6500) in positive ESI mode. Total sulfatides (Matreya) were used as reference standards. The non-hydroxy-sulfatide or 2-hydroxy-sulfatide species identified in the reference standards were each summed and normalized relative to the vehicle treated animals.
Sulfatides were quantified using the methods described above. For lysosulfatide, 30 µL of brain homogenates were added to 200 µL ACN with IS (N-acetylsulfatide, Matreya), vortexed for 10 min, and centrifuged at 5800 rpm for 10 min. 3 µL of supernatant was injected for LC–MS/MS analysis. UPLC–MS/MS methods were the same used for sulfatides described above except lysosulfatide (Matreya) was used as a reference standard.

wild-type mice [2] = assay: PND15 wild-type mice tolerability study: clinical signs, wire hang, NCV, histology; assay type: in vivo, mouse
Protocol: (§1) Animals were euthanized with CO2 followed by cardiac puncture. Blood was collected via cardiac puncture and split for blood chemistry and hematology.
Beginning on the 2nd week of treatment mice were trained weekly for two weeks. Mice are placed on a wire grid, which is shaken to increase wire grabbing, and then immediately turned over. Mice are timed for their ability to hang from the inverted grid for 1 min. Three trials are performed, up to 1 min each, with a 30 s recovery period between trials. After training, mice were tested weekly and times recorded. The test was done with the grid held 10–12 in. over a box of clean shavings.
Brains were collected after removal of the calvarium, weighted, and halved following the midline. The brain was sectioned in the mid-sagittal plane with half placed in 10% NBF. One sciatic nerve and other organs [heart, lung, liver, spleen, kidney, adrenal glands, stomach, small intestine, large intestine, spinal cord (cervical, thoracic, lumbar), skin, testes, and lymph nodes] were also collected and fixed in 10% NBF. Sections of sciatic nerve were also fixed in 2% PFA, 2% glutaraldehyde, embedded, sectioned and stained with Toluidine blue before scanning. Images were analyzed to determine the G-ratio in the […].
Mice were anesthetized with isoflurane and placed on a thermostatically controlled heating pad to maintain body temperature. The recording electrode was inserted into the plantar muscles and a reference electrode was placed in the skin between toes. A pair of subcutaneous stimulating electrodes were placed distally on both sides of the ankle to stimulate the lateral plantar nerve. For proximal stimulation, the electrodes are moved to the level of the sciatic notch, to the depth of the sciatic nerve. […] Six distally-produced CMAPs were recorded and stored. The procedure was repeated using the proximal electrode pair, and current was increased until a CMAP that matches that produced by distal stimulation was evident. Six proximally-produced CMAPs were recorded and stored. The distance between the sites of stimulation was measured. NCV was later calculated using the two latencies and conduction distance. The H wave was recorded during the recording of the distally stimulated CMAPs.

wild-type mice [3] = assay: PND15 wild-type mice tolerability study: blood chemistry and hematology; assay type: in vivo, mouse; details: PND15-PND70, Avg
Protocol: Maximum obtainable terminal blood collection was taken via cardiac puncture and split. 200 µL into clot-activating tubes for serum processing and the following chemistry panel: AST, ALT, CKMB and electrolytes. 220 µL stored on wet ice and used for CBC.
as §1

[4] = wild-type mice, chronic, 2.3 and 5.4 mg/kg
[5] = 2.3 mg/kg IP three times per week
[6] = 5.4 mg/kg IP three times per week

## C[C@H]1N(c2ccc(Br)cc2)C(=O)N(c2ccc(Br)cc2)C1(O)c1cccc(OC(F)(F)F)c1 (stereo partly shown) [S202]
[1]; higher doses
  2-hydroxy-sulfatides in brain: reduced
[1]; lower doses
  lysosulfatide in brain: reduction
  non-hydroxy-sulfatide in brain: reduction
wild-type mice [2]; wild-type mice treated from PND15 to PND70
  testes histopathology: germ cell exfoliation with decreased germinal epithelial layers
wild-type mice [2]; wild-type mice, IP three times per week from PND15, 2.3 mg/kg and 5.4 mg/kg
  longer-term (8 week) tolerability: well tolerated with no mortality, change in weight, or grossly abnormal clinical signs
wild-type mice [2]; wild-type mice, chronic treatment from PND15
  brain and spinal cord histology (H&E, luxol fast blue/PAS): widespread vacuolation
wild-type mice [2]; [4]
  sciatic nerve conduction velocity (NCV): significant and dose-dependent reduction
  wire hang test: impaired performance on the wire hang test
wild-type mice [2]; wild-type mice, chronic, 2.3 and 5.4 mg/kg, some mice
  gait: mild gait abnormality
wild-type mice [3]; [5]
  #BASO: 0.02 10^3cells/µL
  #EOS: 0.14 10^3cells/µL
  #LUC: 0.11 10^3cells/µL
  #LYMPH: 4.3 10^3cells/µL
  #MONO: 0.12 10^3cells/µL
  #NEUT: 0.8 10^3cells/µL
  #RETIC: 291 10^9cells/L
  %BASO: 0.4%
  %EOS: 2.4%
  %LUC: 2%
  %LYMPH: 78.8%
  %MONO: 2.3%
  %NEUT: 14.3%
  %RETIC: 2.9%
  ALT: 257.2 IU/L
  AST: 283.5 IU/L
  CH: 13.3 pg
  CHCM: 27.5 g/dL
  CHR: 14.6 pg
  CHm: 14 pg
  CKMB: 250.5 U/L
  CL: 109.4 mmol/L
  HCT: 47.9%
  HDW: 1.9 g/dL
  HGB: 15.3 g/dL
  HGBCell: 13.2 g/dL
  K: 10.5 mmol/L
  MCH: 15.4 pg
  MCHC: 31.9 g/dL
  MCV: 48.2 fL
  MPM: 1.3 pg
  MPV: 5.4 fL
  NA: 148 mmol/L
  PDW: 37.1%
  PLT: 1.02e+06 µL⁻¹
  RBC: 9.9e+06 µL⁻¹
  RDW: 12.2%
  WBC: 5500 µL⁻¹
wild-type mice [3]; [6]
  #BASO: 0.013 10^3cells/µL
  #EOS: 0.4 10^3cells/µL
  #LUC: 0.047 10^3cells/µL
  #LYMPH: 3.8 10^3cells/µL
  #MONO: 0.08 10^3cells/µL
  #NEUT: 0.55 10^3cells/µL
  #RETIC: 285 10^9cells/L
  %BASO: 0.35%
  %EOS: 8.2%
  %LUC: 0.9%
  %LYMPH: 77.6%
  %MONO: 1.6%
  %NEUT: 11.4%
  %RETIC: 2.7%
  ALT: 99.5 IU/L
  AST: 132.8 IU/L
  CH: 13.1 pg
  CHCM: 27.3 g/dL
  CHR: 14.6 pg
  CHm: 13.8 pg
  CKMB: 126.4 U/L
  CL: 111.3 mmol/L
  HCT: 50.1%
  HDW: 1.93 g/dL
  HGB: 15.9 g/dL
  HGBCell: 13.7 g/dL
  K: 9.6 mmol/L
  MCH: 15.3 pg
  MCHC: 31.8 g/dL
  MCV: 48.1 fL
  MPM: 1.3 pg
  MPV: 5.82 fL
  NA: 150.9 mmol/L
  PDW: 46.63%
  PLT: 737200 µL⁻¹
  RBC: 1.04e+07 µL⁻¹
  RDW: 11.8%
  WBC: 4900 µL⁻¹
